Experimental data published in US20080139578A1, “Substituted piperizines for the treatment of pain” (priority 2006, published 2008).

Legend:
Assay type in all cases: in vivo
[1] = tested on: rats (Sprague-Dawley, Harlan); test: Spared Nerve Ligation (SNL)-induced allodynia model (von Frey filaments); conditions: rat SNL model
Method: For the neuropathic pain model, rats (Sprague-Dawley, Harlan) were anesthetized with isoflurane and were placed on a heating pad. Using aseptic techniques, the L5 spinal nerve was exposed and ligated. Muscle and skin were closed with 4-0 Polydiaxone and wound clips, respectively. Animals were tested for allodynia 4 weeks post SNL surgery. Only rats that developed allodynia as defined by a significant decrease in their mechanical threshold using von Frey filaments, were used for evaluating the compound. Tactile allodynia was assessed with calibrated von Frey filaments (Stoelting Co), using an up-down paradigm before and at 2 hr and 44 hr post-compound administration. Data are expressed as % reversal=(post-treatment−post-vehicle)/(pre-SNL threshold−post-vehicle)×100.

[2] = tested on: Male Sprague-Dawley (Charles River) rats; test: Capsaicin-induced allodynia model (von Frey filaments); conditions: rat
Method: Male Sprague-Dawley (Charles River) rats were habituated to the von Frey stands for 4 hr the day prior to the testing day. Tactile allodynia was assessed using calibrated von Frey filaments (up-down method) before and 30, 60 and 120 min post capsaicin injection. Capsaicin (30 μg in 10 μl) was diluted in Ethanol:Tween80:Saline (20:7:73) and administered into the rat left paw. The test compound is administered P.O. at 3, 10 or 30 mg/kg (4 ml/kg) 30 min prior to capsaicin administration. Data are expressed as % inhibition=(post-treatment−post-vehicle)/(pre-capsaicin threshold−post-vehicle)×100. Statistic analysis: 2-way ANOVA (time and dose) and Bonferroni post-hoc analysis comparing each dose to vehicle.

[3] = tested on: Male Sprague Dawley rats; test: Rodent CFA model of inflammatory pain (mechanical hyperalgesia, Ugo Basile paw pressure); conditions: rat CFA model

Question: How did the “maximal percent reversal of allodynia” value ([1]; 3 mg/kg P.O.) turn out when `O=C(CC(c1ccccc1)c1ccccc1)N1CCNCC1` [Example 1, 1-(3,3-diphenylpropanoyl)piperazine] was run?
Answer: 11%

Question: And the “maximal percent reversal of allodynia” value ([1]; 10 mg/kg P.O.)?
Answer: 47%

Question: What about the “maximal percent reversal of allodynia” value ([1]; 30 mg/kg P.O.) of the same molecule?
Answer: 47%

Question: And the “maximal percent inhibition of allodynia” value ([2]; 3 mg/kg P.O. 30 min before capsaicin challenge)?
Answer: 33%

Question: What about the “maximal percent inhibition of allodynia” value ([2]; 10 mg/kg P.O. 30 min before capsaicin challenge) of the same molecule?
Answer: 46%

Question: And the “maximal percent inhibition of allodynia” value ([2]; 30 mg/kg P.O. 30 min before capsaicin challenge)?
Answer: 89%

Question: And the reversal of hyperalgesia ([3]; 3 mg/kg P.O., 3 hr post-dose)?
Answer: 17%

Question: And the reversal of hyperalgesia ([3]; 3 mg/kg P.O., one hour post-dose)?
Answer: 26%

Question: What about the reversal of hyperalgesia ([3]; 10 mg/kg P.O., 3 hr post-dose) of the same molecule?
Answer: 39%

Question: And the reversal of hyperalgesia ([3]; 10 mg/kg P.O., one hour post-dose)?
Answer: 43%

Question: And the reversal of hyperalgesia ([3]; 30 mg/kg P.O., 3 hr post-dose)?
Answer: 44%

Question: And the reversal of hyperalgesia ([3]; 30 mg/kg P.O., one hour post-dose)?
Answer: 63%
